Test results taken from patent US20080045514A1 (Cytovia, Inc., priority 2006, published 2008).
pEC50: −log10 of the molar value.

Columns and labels:
Type in all cases: cell-based
[1] = tested on: human breast cancer cell line T-47D; assay: Caspase cascade activation (EC50), T-47D; conditions: Homo sapiens; T47D cells; caspase cascade activation; read-out: caspase potency (EC50) T47D
Description: (§1) Human breast cancer cell lines T-47D, human hepatocellular carcinoma cell line SNU398, human colon carcinoma cell line HCT116, human cancer cell line H1299, human Burkitt's lymphoma cell line Namalwa, human lymphoma cell line Raji, and human B cell lymphoblastoid cell line Ramos were grown according to media component mixtures designated by American Type Culture Collection+10% FCS (Invitrogen Corporation), in a 5% CO2-95% humidity incubator at 37° C. T-47D and H1299 cells were maintained at a cell density between 50 and 80% confluency at a cell density of 0.1 to 0.6×10^6 cells/mL. Cells were harvested at 600×g and resuspended at 0.65×10^6 cells/mL into appropriate media+10% FCS. An aliquot of 22.5 μL of cells was added to a well of a 384-well microtiter plate containing 2.5 μL of a 10% DMSO in RPMI-1640 media solution containing 0.16 to 100 μM of 3-(2-chlorophenyl)-6-(3,4-methylenedioxyphenyl)-7H-[1,2,4]triazolo[3,4-b][1,3,4]thiadiazine or other test compound (0.016 to 10 μM final). An aliquot of 22.5 μL of cells was added to a well of a 384-well microtiter plate containing 2.5 μL of a 10% DMSO in RPMI-1640 media solution without test compound as the control sample. The samples were mixed by agitation and then incubated at 37° C. for 48 h in a 5% CO2-95% humidity incubator. After incubation, the samples were removed from the incubator and 25 μL of a solution containing 14 μM of N—(Ac-DEVD)-N′-ethoxycarbonyl-R110 (SEQ ID No.:1) fluorogenic substrate (Cytovia, Inc.; WO99/18856), 20% sucrose (Sigma), 20 mM DTT (Sigma), 200 mM NaCl (Sigma), 40 mM Na PIPES buffer pH 7.2 (Sigma), and 500 μg/mL lysolecithin (Calbiochem) was added. The samples were mixed by agitation and incubated at room temperature. Using a fluorescent plate reader (Model SPECTRAfluor Plus, Tecan), an initial reading (T=0) was made approximately 1-2 min after addition of the substrate solution, employing excitation at 485 nm and emission at 530 nm, to determine the background fluorescence of the control sample. After the 3 h incubation, the samples were read for fluorescence as above (T=3 h). Calculation: The Relative Fluorescence Unit values (RFU) were used to calculate the sample readings as follows: RFU(T=3H)−Control RFU(T=0)=Net RFU(T=3h) The activity of caspase cascade activation was determined by the ratio of the net RFU value for 3-(2-chlorophenyl)-6-(3,4-methylenedioxyphenyl)-7H-[1,2,4]triazolo[3,4-b][1,3,4]thiadiazine (Example P) or other test compound to that of control samples. The EC50 (nM) was determined by a sigmoidal dose-response calculation (Prism 3.0, GraphPad Software Inc.).

[2] = tested on: human hepatocellular carcinoma cell line SNU398; assay: Caspase cascade activation (EC50), SNU398; conditions: Homo sapiens, SNU-398; SNU398 cells; caspase cascade activation; read-out: caspase potency (EC50) SNU398
Description: as §1

[3] = tested on: human colon carcinoma cell line HCT116; assay: Caspase cascade activation (EC50), HCT116; conditions: Homo sapiens, HCT-116; HCT116 cells; caspase cascade activation; read-out: caspase potency (EC50) HCT116
Description: as §1

[4] = tested on: human Burkitt's lymphoma cell line Namalwa; assay: Caspase cascade activation (EC50), Namalwa; conditions: Homo sapiens, Burkitts lymphoma cell; Namalwa cells; caspase cascade activation; read-out: caspase potency (EC50) Namalwa
Description: as §1

Row | SMILES | pEC50 [1] | pEC50 [2] | pEC50 [3] | pEC50 [4]
1 | COc1cc(OC)cc(-c2nnc3n2N=C(c2ccc4[nH]c(=O)oc4c2)CS3)c1 [Example 34, 6-(2,3-Dihydro-2-oxobenzo[d]oxazol-6-yl)-3-(3,5-dimethoxyphenyl)-7H-[1,2,4]triazolo[3,4-b][1,3,4]thiadiazine] | 5.34 | 5.31 | 5.29 | 5.31
2 | COc1ccc(-c2nnc3n2N=C(c2ccc4[nH]c(=O)oc4c2)CS3)cc1OC [Example 35, 6-(2,3-Dihydro-2-oxobenzo[d]oxazol-6-yl)-3-(3,4-dimethoxyphenyl)-7H-[1,2,4]triazolo[3,4-b][1,3,4]thiadiazine] | < 5.00 | < 5.00 | < 5.00 | < 5.00
3 | COc1ccc(-c2nn3c(-c4ccccc4OC)nnc3[nH]c2=O)cc1 [Example 36, 3-(2-Methoxyphenyl)-6-(4-methoxyphenyl)-[1,2,4]triazolo[4,3-b][1,2,4]triazin-7(8H)-one] | < 5.00 |  | < 5.00 | < 5.00
4 | COc1cc(-c2n[nH]c3nc(=O)c(-c4ccc(C)cc4)nn23)cc(OC)c1OC [Example 37, 3-(3,4,5-Trimethoxyphenyl)-6-(4-methylphenyl)-1H-[1,2,4]triazolo[4,3-b][1,2,4]triazin-7-one] | 5.23 | 5.30 | < 5.00 | < 5.00
5 | COc1ccccc1-c1n[nH]c2nc(=O)c(-c3ccc(C)cc3)nn12 [Example 38, 3-(2-Methoxyphenyl)-6-(4-methylphenyl)-1H-[1,2,4]triazolo[4,3-b][1,2,4]triazin-7-one] | < 5.00 | < 5.00 | < 5.00 | < 5.00
6 | COc1cc(C)c(Cl)cc1C1=Nn2c(nnc2-c2ccccc2OC)SC1 [Example 49, 6-(5-Chloro-2-methoxy-4-methylphenyl)-3-(2-methoxyphenyl)-7H-[1,2,4]triazolo[3,4-b][1,3,4]thiadiazine] | < 5.00 | 5.25 | < 5.00 | 5.25
7 | COc1ccccc1-c1nnc2n1N=C(c1ccc(OC(F)(F)F)cc1)CS2 [Example 50, 3-(2-Methoxyphenyl)-6-(4-(trifluoromethoxy)phenyl)-7H-[1,2,4]triazolo[3,4-b][1,3,4]thiadiazine] | 6.26 | 6.28 | 6.25 | 6.30
8 | Cc1ccccc1-c1nnc2n1N=C(c1ccc(C(C)(C)C)cc1)CS2 [Example 51, 6-(4-tert-Butylphenyl)-3-(2-methylphenyl)-7H-[1,2,4]triazolo[3,4-b][1,3,4]thiadiazine] | < 5.00 | < 5.00 | < 5.00 | < 5.00
9 | CCN(CC)S(=O)(=O)c1ccc(C2=Nn3c(nnc3-c3ccccc3C)SC2)cc1 [Example 52, 6-(4-(N,N-Diethylaminosulfonyl)phenyl)-3-(2-methylphenyl)-7H-[1,2,4]triazolo[3,4-b][1,3,4]thiadiazine] | < 5.00 | < 5.00 | < 5.00 | < 5.00
10 | COc1ccccc1C1=Nn2c(nnc2-c2ccccc2OC)SC1 [Example 64, 3-(2-Methoxyphenyl)-6-(2-methoxylphenyl)-7H-[1,2,4]triazolo[3,4-b][1,3,4]thiadiazine] | < 5.00 | < 5.00 | < 5.00 | < 5.00
11 | COc1ccc(C2=Nn3c(nnc3-c3ccccc3Cl)SC2)cc1 [Example C2, 3-(2-Chlorophenyl)-6-(4-methoxyphenyl)-7H-[1,2,4]triazolo[3,4-b][1,3,4]thiadiazine] | 6.40 | 7.22 | 6.75 | 
12 | COc1cccc(-c2nnc3n2N=C(c2ccc(O)c(O)c2)CS3)c1 [Example D2, 3-(3-Methoxyphenyl)-6-(3,4-dihydroxyphenyl)-7H-[1,2,4]triazolo[3,4-b][1,3,4]thiadiazine] | 6.16 | 6.95 | 6.28 | 
13 | CCOc1ccc(C2=Nn3c(nnc3-c3cccc(Cl)c3)SC2)cc1 [Example E2, 3-(3-Chlorophenyl)-6-(4-ethoxyphenyl)-7H-[1,2,4]triazolo[3,4-b][1,3,4]thiadiazine] | 5.96 | 6.37 | 6.17 | 
14 | COc1cccc(-c2nnc3n2N=C(c2ccc(Br)cc2)CS3)c1 [Example F2, 3-(3-Methoxyphenyl)-6-(4-bromophenyl)-7H-[1,2,4]triazolo[3,4-b][1,3,4]thiadiazine] | 5.27 | 5.57 | < 5.00 | 
15 | CCOc1ccc(C2=Nn3c(nnc3-c3cccc(OCC)c3)SC2)cc1 [Example G2, 3-(3-Ethoxyphenyl)-6-(4-ethoxyphenyl)-7H-[1,2,4]triazolo[3,4-b][1,3,4]thiadiazine] | 5.20 | 5.59 | < 5.00 | 

The remaining lines, values ahead:

Row | pEC50 [1] | pEC50 [2] | pEC50 [3] | pEC50 [4] | SMILES
16 | 5.57 | 6.03 | 5.59 | 5.89 | COc1ccccc1-c1nnc2n1N=C(c1ccc(C)cc1C)CS2 [Example 39, 3-(2-Methoxyphenyl)-6-(2,4-dimethylphenyl)-7H-[1,2,4]triazolo[3,4-b][1,3,4]thiadiazine]
17 | 6.55 | 6.61 | 6.56 | 6.61 | COc1ccccc1-c1nnc2n1N=C(c1ccc(C(C)C)cc1)CS2 [Example 44, 6-(4-Isopropylphenyl)-3-(2-methoxyphenyl)-7H-[1,2,4]triazolo[3,4-b][1,3,4]thiadiazine]
18 | < 5.00 | < 5.00 | < 5.00 | < 5.00 | COc1ccccc1-c1nnc2n1N=C(c1ccc([N+](=O)[O-])c(OC)c1)CS2 [Example 45, 6-(3-Methoxy-4-nitrophenyl)-3-(2-methoxyphenyl)-7H-[1,2,4]triazolo[3,4-b][1,3,4]thiadiazine]
19 | < 5.00 | < 5.00 | < 5.00 | < 5.00 | Cc1ccccc1-c1nnc2n1N=C(c1ccc(C)c([N+](=O)[O-])c1)CS2 [Example 53, 6-(4-Methyl-3-nitrophenyl)-3-(2-methylphenyl)-7H-[1,2,4]triazolo[3,4-b][1,3,4]thiadiazine]
20 | 6.26 | 6.51 | 6.36 | 6.54 | COc1ccccc1-c1nnc2n1N=C(c1ccc(C)c([N+](=O)[O-])c1)CS2 [Example 54, 3-(2-Methoxyphenyl)-6-(4-methyl-3-nitrophenyl)-7H-[1,2,4]triazolo[3,4-b][1,3,4]thiadiazine]
21 | 5.69 | 5.73 | < 5.00 | < 5.00 | COc1ccccc1-c1nnc2n1N=C(c1ccc(Cl)c([N+](=O)[O-])c1)CS2 [Example 55, 6-(4-Chloro-3-nitrophenyl)-3-(2-methoxyphenyl)-7H-[1,2,4]triazolo[3,4-b][1,3,4]thiadiazine]
22 | 6.32 | 6.48 | 6.30 | 6.57 | COc1ccccc1-c1nnc2n1N=C(c1ccc(NC(C)=O)c([N+](=O)[O-])c1)CS2 [Example 56, 6-(4-Acetamido-3-nitrophenyl)-3-(2-methoxyphenyl)-7H-[1,2,4]triazolo[3,4-b][1,3,4]thiadiazine]
23 | 5.58 | 5.64 | 5.54 | 5.63 | COc1cc(C2=Nn3c(nnc3-c3ccccc3OC)SC2)ccc1N [Example 57, 6-(4-Amino-3-methoxyphenyl)-3-(2-methoxyphenyl)-7H-[1,2,4]triazolo[3,4-b][1,3,4]thiadiazine]
24 | < 5.00 | < 5.00 | < 5.00 | < 5.00 | COc1ccccc1-c1nnc2n1N=C(c1ccc(N)c(N)c1)CS2 [Example 60, 6-(3,4-Diaminophenyl)-3-(2-methoxyphenyl)-7H-[1,2,4]triazolo[3,4-b][1,3,4]thiadiazine]
